Series [1] in a line: Plasma stability (human plasma). The following applies: for Formation of EFdA at 30 min: human plasma; for half-life at 2 µM: human, pH 7.4. As to the method: The pooled frozen plasma was thawed in a water bath at 37° C. prior to experiment. Plasma was centrifuged at 4000 rpm for 5 min and the clots were removed if any. The pH will be adjusted to 7.4±0.1 if required.
Preparation of test compounds and positive control (propantheline bromide): 1 mM intermediate solution was prepared by diluting 10 μL of the stock solution with 90 μL MeOH; 1 mM intermediate of positive control Propantheline was prepared by diluting 10 μL of the stock solution with 90 μL ultrapure water. 100 μM dosing solution was prepared by diluting 20 μL of the intermediate solution (1 mM) with 180 μL MeOH. 98 μL of blank plasma was spiked with 2 μL of dosing solution (100 μM) to achieve 2 μM of the final concentration in duplicate and samples were incubated at 37° C. in a water bath. […] Centrifuged sample plates at 4,000 rpm for 10 min. An aliquot of supernatant (100 μL) was transferred from each well to another plates.

The nature of series [2]: Plasma exposures following intramuscular administration of prodrugs to cynomolgus monkeys. The following applies: single IM injection, 10 mg/kg.
Series [3] is described as follows: Liver S9 stability (human liver S9). The format is in vitro ADME. As to conditions: for half-life at 1 µM: human liver S9, 37° C.; for Formation of EFdA at 30 min: human liver S9, 30 min. As to the method: Add 600 μL/well stop solution (cold in 4° C., including 100 ng/mL Tolbutamide/100 ng/mL Labetalol) to terminate the TO plate, then put it on ice. Dispense 840 μL/well S9 solution to 96-well plate as reservoir according to plate map. Then add 100 μL/well to every plate by Apricot. Incubate S9 solution and compound at 37° C. for about 10 min except NCF60 and TO. After adding S9 solution and 98μ LPB buffer to NCF60, incubate at 37° C. without pre-warming, start timer 1. After 60 min, add 600 μL/well stop solution to terminate the reaction. After pre-warming, dispense 760 μL/well cofactor solution to 96-well plate as reservoir according to plate map. Then add 98 μL/well to every plate by Apricot to start reaction. Incubate at 37° C., start timer 2, Add 600 μL/well stop solution (cold in 4° C., including 100 ng/mL Tolbutamide and Labetalol) to terminate the reaction. Samples are centrifuged at 4000 rpm for 20 min. While centrifuging, load 8× new 96-well plate with 300 μL HPLC water, then transfer 100 μL supernatant, mix with water for LC/MS/MS, transferred to Bioanalytical Services for LC-MS/MS analysis. Use equation of first order kinetics [NT]1/2 and CL: Equation of first order kinetics: [formula] [formula] [formula] [formula]

On to `C#C[C@]1(COC(=O)OCCC23CC4CC(CC(C4)C2)C3)O[C@@H](n2cnc3c(N)nc(F)nc32)C[C@@H]1O` [Compound 7, ((2R, 3S, 5R)-5-(6-amino-2-fluoro-9H-purin-9-yl)-2-ethynyl-3-hydroxy-tetrahydrofuran-2-yl)methyl 2-(1-adamantyl)ethyl carbonate], for which the “Formation of EFdA at 30 min” value in series [1] is on record as “Yes”. The half-life at 2 µM in series [1] (pooled plasma) is < 50 min. For the same compound, the “Release of EFdA in vivo and prodrug level in the systemic circulation” value (from here on “Release of EFdA”) in series [2] is “efficiently release EFdA in vivo with minimal to low levels of prodrug detected in the systemic circulation”. Moreover, in series [3], the half-life at 1 µM is < 50 min and the “Formation of EFdA at 30 min” value is “Yes”.

For the compound `C#C[C@]1(COC(=O)OCCCC23CC4CC(CC(C4)C2)C3)O[C@@H](n2cnc3c(N)nc(F)nc32)C[C@@H]1O` [Compound 10, ((2R,3S,5R)-5-(6-amino-2-fluoro-9H-purin-9-yl)-2-ethynyl-3-hydroxy-tetrahydrofuran-2-yl)methyl 3-(1-adamantyl)propyl carbonate], the “Formation of EFdA at 30 min” value in series [1] was “Yes”. For the same compound, in series [1] (pooled plasma), the half-life at 2 µM is < 50 min. Moreover, in series [2], the “Release of EFdA” value is recorded as “efficiently release EFdA in vivo with minimal to low levels of prodrug detected in the systemic circulation”. Besides, in series [3], the half-life at 1 µM was < 50 min and the “Formation of EFdA at 30 min” value was “Yes”.

Regarding `C#C[C@]1(COC(=O)OCCCCC23CC4CC(CC(C4)C2)C3)O[C@@H](n2cnc3c(N)nc(F)nc32)C[C@@H]1O` [Compound 12, ((2R,3S,5R)-5-(6-amino-2-fluoro-9H-purin-9-yl)-2-ethynyl-3-hydroxy-tetrahydrofuran-2-yl)methyl 4-(1-adamantyl)butyl carbonate], in series [1], the “Formation of EFdA at 30 min” value is recorded as “Yes”. Moreover, the half-life at 2 µM in series [1] (pooled plasma) is < 50 min. Besides, in series [2], the “Release of EFdA” value was “efficiently release EFdA in vivo with minimal to low levels of prodrug detected in the systemic circulation”. In series [3], the half-life at 1 µM was < 50 min and the “Formation of EFdA at 30 min” value was “Yes”.

As to `C#C[C@]1(COC(=O)OC23CC4CC(CC(C4)C2)C3)O[C@@H](n2cnc3c(N)nc(F)nc32)C[C@@H]1OC(=O)OCC` [Compound 27, 1-adamantyl ((2R,3S,5R)-5-(6-amino-2-fluoro-purin-9-yl)-3-ethoxycarbonyloxy-2-ethynyl-tetrahydrofuran-2-yl)methyl carbonate], the “Formation of EFdA at 30 min” value in series [1] was “No”. The half-life at 2 µM in series [1] (plasma) is > 200 min. Moreover, in series [3], the half-life at 1 µM was < 50 min and the “Formation of EFdA at 30 min” value is given as “Yes”.

On to `C#C[C@]1(COC(=O)OC23CC4CC(CC(C4)C2)C3)O[C@@H](n2cnc3c(N)nc(F)nc32)C[C@@H]1OC(=O)C(C)C` [Compound 28, ((2R,3S,5R)-2-(1-adamantyloxycarbonyloxymethyl)-5-(6-amino-2-fluoro-9H-purin-9-yl)-2-ethynyl-tetrahydrofuran-3-yl) 2-methylpropanoate], for which the “Formation of EFdA at 30 min” value in series [1] is recorded as “No”. In series [1] (pooled plasma), the half-life at 2 µM is > 200 min. In series [3], the half-life at 1 µM was < 50 min and the “Formation of EFdA at 30 min” value was “Yes”.
